The record followed here is patent US8530493B2, “Indolopyridines as Eg5 kinesin modulators” (4SC AG, priority 2006, dated 2013).

This test concerns RKO p21 uninduced (proliferating) colon adenocarcinoma cells. Nature of the test: Alamar Blue cell viability assay, RKO p21 uninduced (proliferating). To be noted: Homo sapiens, Table B3, anti-proliferative/cytotoxic activity, 72 hours, read-out: −log EC50 RKO p21 uninduced (proliferating) (converted). Format: cell-based. In a few lines:
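Viability read by Alamar Blue fluorescence (ex 544, em 590 nm), normalised to untreated wells, after 72 h, 37° C, 5% CO2 compound exposure in triplicate. Cells were uninduced (no Ponasterone A), proliferating RKO colon carcinoma p27 or p21 subclones in DMEM with 10% FCS; values are −log EC50 (mol/l).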
As for `C[C@@]12Cc3c([nH]c4ccc(Br)cc34)[C@@H](c3cccc(O)c3)N1C(=O)N(CCN1CCOCC1)C2=O` (racemic) [Example 388, (3aSR,10RS)-6-Bromo-10-(3-hydroxy-phenyl)-3a-methyl-2-(2-morpholin-4-yl-ethyl)-3a,4,9,10-tetrahydro-2,9,10a-triaza-cyclopenta[b]fluorene-1,3-dione], the EC50 is 39.8 to 251 nM.
With `CC(C)NCCN1C(=O)N2[C@H](c3cccc(O)c3)c3[nH]c4cc(F)c(Cl)cc4c3C[C@@]2(C)C1=O` (racemic) [Example 339, (3aSR,10RS)-6-Chloro-7-fluoro-10-(3-hydroxy-phenyl)-2-(2-isopropylamino-ethyl)-3a-methyl-3a,4,9,10-tetrahydro-2,9,10a-triaza-cyclopenta[b]fluorene-1,3-dione] the figure was at most 39.8 nM; with `C=CCN(C)CCN1C(=O)N2[C@H](c3cccc(O)c3)c3[nH]c4cc(F)c(Cl)cc4c3C[C@@]2(C)C1=O` (racemic) [Example 362, (3aSR,10RS)-2-[2-(Allyl-methyl-amino)-ethyl]-6-chloro-7-fluoro-10-(3-hydroxy-phenyl)-3a-methyl-3a,4,9,10-tetrahydro-2,9,10a-triaza-cyclopenta[b]fluorene-1,3-dione], 39.8 to 251 nM; with `CCOc1ccc2[nH]c3c(c2c1)C[C@@]1(C)C(=O)N(CCN(CC)CC)C(=O)N1[C@@H]3c1cccc(O)c1` (racemic) [Example 162, (3aSR,10RS)-2-(2-Diethylamino-ethyl)-6-ethoxy-10-(3-hydroxy-phenyl)-3a-methyl-3a,4,9,10-tetrahydro-2,9,10a-triaza-cyclopenta[b]fluorene-1,3-dione], 39.8 to 251 nM.
Regarding `C=CCNCCCN1C(=O)N2[C@H](c3cccc(O)c3)c3[nH]c4ccc(OC)cc4c3C[C@@]2(C)C1=O` [Example 533, (3aS,10R)-2-(3-Allylamino-propyl)-10-(3-hydroxy-phenyl)-6-methoxy-3a-methyl-3a,4,9,10-tetrahydro-2,9,10a-triaza-cyclopenta[b]fluorene-1,3-dione], the EC50 was at most 39.8 nM.
As for `CN1CCN(CCN2C(=O)N3[C@H](c4cccc(O)c4)c4[nH]c5ccc(OC(F)F)cc5c4C[C@@]3(C)C2=O)CC1` (racemic) [Example 294, (3aSR,10RS)-6-(1,1-Difluoro-methoxy)-10-(3-hydroxy-phenyl)-3a-methyl-2-[2-(4-methyl-piperazin-1-yl)-ethyl}-3a,4,9,10-tetrahydro-2,9,10a-triaza-cyclopenta[b]fluorene-1,3-dione], the EC50 is 39.8 to 251 nM.
`COc1cc2c3c([nH]c2cc1F)[C@@H](c1cccc(O)c1)N1C(=O)N(CCN2CCCCC2)C(=O)[C@]1(C)C3` (racemic) [Example 263, (3aSR,10RS)-7-Fluoro-10-(3-hydroxy-phenyl)-6-methoxy-3a-methyl-2-(2-piperidin-1-yl-ethyl)-3a,4,9,10-tetrahydro-2,9,10a-triaza-cyclopenta[b]fluorene-1,3-dione]: the EC50 was 39.8 to 251 nM.
Regarding `C=CCN(C)CCN1C(=O)N2[C@H](c3cccc(O)c3)c3[nH]c4ccc(OCC)cc4c3C[C@@]2(C)C1=O` (racemic) [Example 300, (3aSR,10RS)-2-[2-(Allyl-methyl-amino)-ethyl]-6-ethoxy-10-(3-hydroxy-phenyl)-3a-methyl-3a,4,9,10-tetrahydro-2,9,10a-triaza-cyclopenta[b]fluorene-1,3-dione], the EC50 was 39.8 to 251 nM.
With `C=CCNCCN1C(=O)N2[C@H](c3cccc(O)c3)c3[nH]c4ccc(OC(F)F)cc4c3C[C@@]2(C)C1=O` (racemic) [Example 274, (3aSR,10RS)-2-(2-Allylamino-ethyl)-6-(1,1-difluoro-methoxy)-10-(3-hydroxy-phenyl)-3a-methyl-3a,4,9,10-tetrahydro-2,9,10a-triaza-cyclopenta[b]fluorene-1,3-dione] the figure was at most 39.8 nM; with `COc1cc2c3c([nH]c2cc1F)[C@@H](c1cccc(O)c1)N1C(=O)N(CCCNC2CCC2)C(=O)[C@]1(C)C3` (racemic) [Example 333, (3aSR,10RS)-2-(3-Cyclobutylamino-propyl)-7-fluoro-10-(3-hydroxy-phenyl)-6-methoxy-3a-methyl-3a,4,9,10-tetrahydro-2,9,10a-triaza-cyclopenta[b]fluorene-1,3-dione], 39.8 to 251 nM; with `CCOc1ccc2[nH]c3c(c2c1)C[C@@]1(C)C(=O)N(CCN2CCCCCC2)C(=O)N1[C@@H]3c1cccc(O)c1` (racemic) [Example 166, (3aSR,10RS)-2-(2-Azepan-1-yl-ethyl)-6-ethoxy-10-(3-hydroxy-phenyl)-3a-methyl-3a,4,9,10-tetrahydro-2,9,10a-triaza-cyclopenta[b]fluorene-1,3-dione], 39.8 to 251 nM.
In the case of `COc1cc2c3c([nH]c2cc1F)[C@@H](c1cccc(O)c1)N1C(=O)N(CCCN2CC=CC2)C(=O)[C@]1(C)C3` (racemic) [Example 323, (3aSR,10RS)-2-[3-(2,5-Dihydro-pyrrol-1-yl)-propyl]-7-fluoro-10-(3-hydroxy-phenyl)-6-methoxy-3a-methyl-3a,4,9,10-tetrahydro-2,9,10a-triaza-cyclopenta[b]fluorene-1,3-dione], the EC50 is 39.8 to 251 nM.
With `COc1cc2c3c([nH]c2cc1F)[C@@H](c1cccc(O)c1)N1C(=O)N(CCCN2CCCCC2)C(=O)[C@]1(C)C3` (racemic) [Example 324, (3aSR,10RS)-7-Fluoro-10-(3-hydroxy-phenyl)-6-methoxy-3a-methyl-2-(3-piperidin-1-yl-propyl)-3a,4,9,10-tetrahydro-2,9,10a-triaza-cyclopenta[b]fluorene-1,3-dione] the figure was 39.8 to 251 nM.
Then `CCOc1ccc2[nH]c3c(c2c1)C[C@@]1(C)C(=O)N(CCCN2CCCCCC2)C(=O)N1[C@@H]3c1cccc(O)c1` (racemic) [Example 210, (3aSR,10RS)-2-(3-Azepan-1-yl-propyl)-6-ethoxy-10-(3-hydroxy-phenyl)-3a-methyl-3a,4,9,10-tetrahydro-2,9,10a-triaza-cyclopenta[b]fluorene-1,3-dione], with 39.8 to 251 nM; and `CNCCN1C(=O)N2[C@H](c3cccc(O)c3)c3[nH]c4cc(F)c(OC)cc4c3C[C@@]2(C)C1=O` (racemic) [Example 248, (3aSR,10RS)-7-Fluoro-10-(3-hydroxy-phenyl)-6-methoxy-3a-methyl-2-(2-methylamino-ethyl)-3a,4,9,10-tetrahydro-2,9,10a-triaza-cyclopenta[b]fluorene-1,3-dione], with 39.8 to 251 nM; and `C[C@@]12Cc3c([nH]c4ccc(OC(F)F)cc34)[C@@H](c3cccc(O)c3)N1C(=O)N(CCN1CCCCC1)C2=O` (racemic) [Example 280, (3aSR,10RS)-6-(1,1-Difluoro-methoxy)-10-(3-hydroxy-phenyl)-3a-methyl-2-(2-piperidin-1-yl-ethyl)-3a,4,9,10-tetrahydro-2,9,10a-triaza-cyclopenta[b]fluorene-1,3-dione], with 39.8 to 251 nM.
With `C[C@@]12Cc3c([nH]c4cc(F)c(Cl)cc34)[C@@H](c3cccc(O)c3)N1C(=O)N(CCN1CCOCC1)C2=O` (racemic) [Example 353, (3aSR,10RS)-6-Chloro-7-fluoro-10-(3-hydroxy-phenyl)-3a-methyl-2-(2-morpholin-4-yl-ethyl)-3a,4,9,10-tetrahydro-2,9,10a-triaza-cyclopenta[b]fluorene-1,3-dione], the EC50 was 39.8 to 251 nM.
Then `COc1cc2c3c([nH]c2cc1F)[C@@H](c1cccc(O)c1)N1C(=O)N(CCN2CC=CCC2)C(=O)[C@]1(C)C3` (racemic) [Example 265, (3aSR,10RS)-2-[2-(3,6-Dihydro-2H-pyridin-1-yl)-ethyl]-7-fluoro-10-(3-hydroxy-phenyl)-6-methoxy-3a-methyl-3a,4,9,10-tetrahydro-2,9,10a-triaza-cyclopenta[b]fluorene-1,3-dione], with 39.8 to 251 nM.
As for `CCN(CCCN1C(=O)N2[C@H](c3cccc(O)c3)c3[nH]c4ccc(Br)cc4c3C[C@@]2(C)C1=O)CCOC` (racemic) [Example 217, (3aSR,10RS)-6-Bromo-2-{3-[ethyl-(2-methoxy-ethyl)-amino]-propyl}-10-(3-hydroxy-phenyl)-3a-methyl-3a,4,9,10-tetrahydro-2,9,10a-triaza-cyclopenta[b]fluorene-1,3-dione], the EC50 was at most 39.8 nM.
Consider `COCCNCCCN1C(=O)N2[C@H](c3cccc(O)c3)c3[nH]c4cc(F)c(Cl)cc4c3C[C@@]2(C)C1=O` (racemic) [Example 462, (3aSR,10RS)-6-Chloro-7-fluoro-10-(3-hydroxy-phenyl)-2-[3-(2-methoxy-ethylamino)-propyl]-3a-methyl-3a,4,9,10-tetrahydro-2,9,10a-triaza-cyclopenta[b]fluorene-1,3-dione], for which the EC50 is at most 39.8 nM.
With `CCN(CC)CCN1C(=O)N2[C@H](c3cccc(O)c3)c3[nH]c4ccc(Br)cc4c3C[C@@]2(C)C1=O` (racemic) [Example 385, (3aSR,10RS)-6-Bromo-2-(2-diethylamino-ethyl)-10-(3-hydroxy-phenyl)-3a-methyl-3a,4,9,10-tetrahydro-2,9,10a-triaza-cyclopenta[b]fluorene-1,3-dione] the figure was at most 39.8 nM; with `CCOc1ccc2[nH]c3c(c2c1)C[C@@]1(C)C(=O)N(CCCNCCOC)C(=O)N1[C@@H]3c1cccc(O)c1` (racemic) [Example 189, (3aSR,10RS)-6-Ethoxy-10-(3-hydroyx-phenyl)-2-[3-(2-methoxy-ethylamino)-propyl]-3a-methyl-3a,4,9,10-tetrahydro-2,9,10a-triaza-cyclopenta[b]fluorene-1,3-dione], 39.8 to 251 nM.
Then `CC(C)N(C)CCCN1C(=O)N2[C@H](c3cccc(O)c3)c3[nH]c4ccc(OC(F)F)cc4c3C[C@@]2(C)C1=O` (racemic) [Example 179, (3aSR,10RS)-6-(1,1-Difluoro-methoxy)-10-(3-hydroxy-phenyl)-2-[3-(isopropyl-methyl-amino)-propyl]-3a-methyl-3a,4,9,10-tetarhydro-2,9,10a-triaza-cyclopenta[b]fluorene-1,3-dione], with at most 39.8 nM.
